What all share (format): cell-based
One experiment has as its system E. coli W3110. Description: microbe, parasite or virus in culture. The conditions noted are these: wild-type E. coli W3110, 22 hours at 37° C., MTT; for MIC: Escherichia coli, W3110, 22 h.
For a further experiment, the system named is P. aeruginosa PAO1. Put plainly: MIC assay, P. aeruginosa PAO1. The conditions noted are these: for MIC: Pseudomonas aeruginosa.
In the next experiment the test system is E. coli W3110PA. Put plainly: microbe, parasite or virus in culture. The note with it: E. coli with native lpxC replaced by that of P. aeruginosa; for MIC: Escherichia coli, W3110PA; for MIC E. coli W3110PA: unit from b306.
The subject of experiment [1] is F. novicida U112 (FNU112). Put plainly: microbe, parasite or virus in culture. The conditions noted are these: Francisella tularensis, read-out: MIC FNU112.
For experiment [2], the system named is N. gonorrhoeae FA19 (a drug-sensitive strain). Put plainly: Disk diffusion assay, N. gonorrhoeae FA19. The note with it: disc 6 mm; for zone of inhibition at 2 µg/disc / zone of inhibition at 0.2 µg/disc / zone of inhibition at 20 µg/disc: Neisseria gonorrhoeae, read-out: diameter of the growth inhibition, FA19. Here is the method: (§1) An assay was performed on two strains of Acinetobacter Baumannii: antibiotic susceptible strain (Sus. A.b. Isolate), and multidrug-resistant strains (MDR A.b. Isolate). […] Activity is measured as the diameter (in mm) of the growth inhibition.

The test system of experiment [3] is N. gonorrhoeae 35/02 (drug-resistant strain). Put plainly: Disk diffusion assay, N. gonorrhoeae 35/02. The note with it: disc 6 mm; for zone of inhibition at 0.2 µg/disc / zone of inhibition at 2 µg/disc / zone of inhibition at 20 µg/disc: Neisseria gonorrhoeae, read-out: diameter of the growth inhibition, 35/02. The method, then: as §1
Experiment [4] relates to N. gonorrhoeae F89 (high-level cefixime and ceftriaxone resistance). Put plainly: Disk diffusion assay, N. gonorrhoeae F89. The conditions noted are these: disc 6 mm; for zone of inhibition at 0.2 µg/disc / zone of inhibition at 2 µg/disc / zone of inhibition at 20 µg/disc: Neisseria gonorrhoeae, read-out: diameter of the growth inhibition, F89. The method, then: as §1
The next experiment deals with N. gonorrhoeae H041. Description: Disk diffusion assay, N. gonorrhoeae H041. The conditions noted are these: disc 6 mm; for zone of inhibition at 0.2 µg/disc / zone of inhibition at 2 µg/disc / zone of inhibition at 20 µg/disc: Neisseria gonorrhoeae, read-out: diameter of the growth inhibition, H041; for zone of inhibition at 0.2 µg/disc: H041, 0.2 μg per disc; for zone of inhibition at 2 µg/disc: H041, 2.0 μg per disc; for zone of inhibition at 20 µg/disc: H041, 20 μg per disc. Here is the method:
as §1

Where [5] appears, read: 0.2 μg per disc, listed as 3 (Isomer B).

This note sets out measurements from patent US10189786B2, “Antibacterial compounds” (Duke University, priority 2013, dated 2019).

Values after ≈ are worked out from the molar mass of the structure shown. Bounds are passed on as bounds.

As to `CC(CCc1ccc(-c2ccccc2)cc1)(C(=O)NO)S(C)(=O)=O` (centres unmarked) [Example 133], the MIC was 3.13 µg/mL (≈ 9.01 µM) against E. coli W3110; 0.39 µg/mL (≈ 1.12 µM) in the experiment on P. aeruginosa PAO1 (PAO1, P. aeruginosa PAO1); 0.38 µg/mL (≈ 1.09 µM) in the experiment on E. coli W3110PA; 3.13 µg/mL (≈ 9.01 µM) in experiment [1].

As to `Cc1ccc(-c2ccc(CN[C@H](C(=O)NO)[C@](C)(O)C(F)F)s2)s1` [Example 7, (2S,3S)-4,4-difluoro-N,3-dihydroxy-3-methyl-2-((5′-methyl-2,2′-bithiophen-5-yl)methylamino)butanamide], the results for the MIC in the experiment on E. coli W3110 and in the experiment on E. coli W3110PA were 50 µg/mL (≈ 133 µM) and 25 µg/mL (≈ 66.4 µM), respectively. Besides, in experiment [2] (2.0 μg per disc), the zone of inhibition at 2 µg/disc was 21 mm.

As to `CC(C)(O)C(C)(CCc1ccc(-c2ccccc2)cc1)C(=O)NO` (centres unmarked) [Example 2, 2-(2-(biphenyl-4-yl)ethyl)-N,3-dihydroxy-2,3-dimethylbutanamide], the MIC in the experiment with E. coli W3110 is above 50 µg/mL; in the experiment on P. aeruginosa PAO1 (PAO1, P. aeruginosa PAO1), 25 µg/mL (≈ 76.4 µM); in the experiment with E. coli W3110PA, 25 µg/mL (≈ 76.4 µM).

With `CC(NCCCc1ccc(-c2ccccc2)cc1)(C(=O)NO)C(C)(O)C(F)F.Cl` (single isomer, unassigned) [Example 135], in the experiment with E. coli W3110, the “MIC E. coli W3110” value was found to be 10 µg/mL. Besides, the “MIC P. aeruginosa PAO1” value against P. aeruginosa PAO1 (P. aeruginosa PAO1) was found to be 20 µg/mL. The results for the “diameter of the growth inhibition, FA19” value in experiment [2] (0.2 μg per disc), in experiment [2] (2.0 μg per disc) and in experiment [2] (20 μg per disc) were 8 mm, 19 mm and 26 mm, respectively. In addition, the “diameter of the growth inhibition, 35/02” value in experiment [3] (0.2 μg per disc) came out at 8 mm; in experiment [3] (2.0 μg per disc), 14 mm; in experiment [3] (20 μg per disc) it was 19 mm. The “diameter of the growth inhibition, F89” value in experiment [4] (0.2 μg per disc) turned out to be 15 mm; in experiment [4] (2.0 μg per disc), 27 mm; in experiment [4] (20 μg per disc) it was 30 mm. Besides, the figures for the “diameter of the growth inhibition, H041” value in the experiment on N. gonorrhoeae H041 (0.2 μg per disc), in the experiment with N. gonorrhoeae H041 (2.0 μg per disc) and in the experiment with N. gonorrhoeae H041 (20 μg per disc) were 8 mm, 14 mm and 23 mm, respectively.

As to `CC(CCn1ccc(-c2ccc(-n3nccn3)cc2)cc1=O)(C(=O)NO)C(C)(O)C(F)F` (centres unmarked) [Example 4, 2-(2-(4-(4-(2H-1,2,3-triazol-2-yl)phenyl)-2-oxopyridin-1 (2H)-yl)ethyl)-4,4-difluoro-N,3-dihydroxy-2,3-dimethylbutanamide], the MIC was found to be 3.12 µg/mL (≈ 6.97 µM) in the experiment with E. coli W3110 and 3.13 µg/mL (≈ 7 µM) in the experiment with E. coli W3110PA. For the same molecule, the zone of inhibition at 0.2 µg/disc in experiment [2] (0.2 μg per disc) is 0 mm; in experiment [3] (0.2 μg per disc), 0 mm; in experiment [4] (0.2 μg per disc), 7 mm; with N. gonorrhoeae H041, 7 mm. The zone of inhibition at 2 µg/disc worked out at 8 mm in experiment [2] (2.0 μg per disc), 11 mm in experiment [3] (2.0 μg per disc), 15 mm in experiment [4] (2.0 μg per disc) and 10 mm in the experiment on N. gonorrhoeae H041. The zone of inhibition at 20 µg/disc in experiment [2] (20 μg per disc) is 19 mm; in experiment [3] (20 μg per disc), 16 mm; in experiment [4] (20 μg per disc) it was 26 mm; in the experiment with N. gonorrhoeae H041, 16 mm.

With `CC(NCc1ccc(-c2ccccc2)cc1)(C(=O)NO)C(C)(O)C(F)F` (centres unmarked) [Example 6, 2-(biphenyl-4-ylmethylamino)-4,4-difluoro-N,3-dihydroxy-2,3-dimethylbutanamide], the MIC in the experiment on E. coli W3110 is above 50 µg/mL; in the experiment with P. aeruginosa PAO1 (P. aeruginosa PAO1), 12.5 µg/mL (≈ 34.3 µM); against E. coli W3110PA, 12.5 µg/mL (≈ 34.3 µM). Moreover, the zone of inhibition at 2 µg/disc in experiment [2] (2.0 μg per disc) stood at 22 mm.

As for `CC(CCc1ccc(-c2ccccc2)cc1)(C(=O)NO)C(C)(O)C(F)F` (single isomer, unassigned) [Example 3 Isomer B, 2-(2-(biphenyl-4-yl)ethyl)-4,4-difluoro-N,3-dihydroxy-2,3-dimethylbutanamide], the “MIC E. coli W3110” value in the experiment with E. coli W3110 is above 50 µg/mL. Further, the “MIC P. aeruginosa PAO1” value against P. aeruginosa PAO1 (P. aeruginosa PAO1, unit from b306, listed as 3 Isomer B) turned out to be 25 µg/mL (≈ 68.8 µM). In addition, the “MIC E. coli W3110PA” value against E. coli W3110PA (listed as 3 Isomer B) came to 25 µg/mL (≈ 68.8 µM). Further, the “diameter of the growth inhibition, FA19” value in experiment [2] (setting [5]) is 0 mm; in experiment [2] (2.0 μg per disc), 15 mm; in experiment [2] (20 μg per disc) it was 23 mm. The “diameter of the growth inhibition, 35/02” value in experiment [3] (2.0 μg per disc) is reported as 8 mm; in experiment [3] (20 μg per disc), 19 mm. For the same molecule, the entries for the “diameter of the growth inhibition, F89” value in experiment [4] (setting [5]), in experiment [4] (2.0 μg per disc) and in experiment [4] (20 μg per disc) were 10 mm, 20 mm and 27 mm, respectively. The “diameter of the growth inhibition, H041” value in the experiment on N. gonorrhoeae H041 (setting [5]) amounted to 8 mm; in the experiment on N. gonorrhoeae H041 (2.0 μg per disc), 10 mm; in the experiment with N. gonorrhoeae H041 (20 μg per disc), 20 mm.

In the experiment on E. coli W3110, `CC(CCc1ccc(-c2ccccc2)cc1)(C(=O)NO)C(C)(O)C(F)F` (single isomer, unassigned) [Example 3 Isomer A, 2-(2-(biphenyl-4-yl)ethyl)-4,4-difluoro-N,3-dihydroxy-2,3-dimethylbutanamide] returned an MIC of 50 µg/mL (≈ 138 µM). For the same molecule, the “MIC P. aeruginosa PAO1” value in the experiment on P. aeruginosa PAO1 (P. aeruginosa PAO1, unit from b306, listed as 3 Isomer A) came to 6.3 µg/mL (≈ 17.3 µM). For the same molecule, in the experiment on E. coli W3110PA (listed as 3 Isomer A), the “MIC E. coli W3110PA” value stood at 3.1 µg/mL (≈ 8.53 µM). For the same molecule, the “diameter of the growth inhibition, FA19” value in experiment [2] (0.2 μg per disc, listed as 3 (Isomer A)) was found to be 11 mm. For the same molecule, the zone of inhibition at 2 µg/disc in experiment [2] (2.0 μg per disc) amounted to 20 mm; in experiment [3] (2.0 μg per disc), 13 mm; in experiment [4] (2.0 μg per disc), 27 mm; in the experiment with N. gonorrhoeae H041, 16 mm. Moreover, the zone of inhibition at 20 µg/disc in experiment [2] (20 μg per disc) was determined as 30 mm; in experiment [3] (20 μg per disc) it was 19 mm; in experiment [4] (20 μg per disc), 33 mm; in the experiment on N. gonorrhoeae H041, 24 mm. For the same molecule, the zone of inhibition at 0.2 µg/disc is 0 mm in experiment [3] (0.2 μg per disc), 18 mm in experiment [4] (0.2 μg per disc) and 9 mm in the experiment on N. gonorrhoeae H041.

As to `C[C@@](O)(C(F)F)[C@H](NCc1ccc(-c2ccccc2)cc1)C(=O)NO` [Example 5, (2S,3S)-2-(biphenyl-4-ylmethylamino)-4,4-difluoro-N,3-dihydroxy-3-methylbutanamide], the MIC is 25 µg/mL (≈ 71.4 µM) against E. coli W3110; 3.1 µg/mL (≈ 8.85 µM) in the experiment with P. aeruginosa PAO1 (PAO1, P. aeruginosa PAO1); 3.1 µg/mL (≈ 8.85 µM) against E. coli W3110PA. Also, the zone of inhibition at 0.2 µg/disc in experiment [2] (0.2 μg per disc) worked out at 0 mm; in experiment [3] (0.2 μg per disc), 0 mm; in experiment [4] (0.2 μg per disc) it was 8 mm; in the experiment on N. gonorrhoeae H041, 7 mm. Besides, the zone of inhibition at 2 µg/disc was determined as 25 mm in experiment [2] (2.0 μg per disc), 16 mm in experiment [3] (2.0 μg per disc), 27 mm in experiment [4] (2.0 μg per disc) and 17 mm in the experiment on N. gonorrhoeae H041. The zone of inhibition at 20 µg/disc is 29 mm in experiment [2] (20 μg per disc), 24 mm in experiment [3] (20 μg per disc), 36 mm in experiment [4] (20 μg per disc) and 25 mm in the experiment with N. gonorrhoeae H041.

As to `C[C@@](O)(C(F)F)[C@H](NCc1ccc(-c2cccs2)s1)C(=O)NO` [Example 8, (2S,3S)-2-(2,2′-bithiophen-5-ylmethylamino)-4,4-difluoro-N,3-dihydroxy-3-methylbutanamide], the MIC with E. coli W3110 and in the experiment with E. coli W3110PA was 25 µg/mL (≈ 69 µM) throughout. For the same molecule, the zone of inhibition at 2 µg/disc in experiment [2] (2.0 μg per disc) stood at 19 mm.
